We go through eight compounds from ChEMBL document CHEMBL1909046, “DrugMatrix in vitro pharmacology data”.

The target of the first series is Sodium-dependent noradrenaline transporter (Homo sapiens, UniProt P23975). As to the kind of experiment: DRUGMATRIX: Norepinephrine Transporter radioligand binding (ligand: [125I] RTI-55). To be noted: mdck; Not Active = under 50% inhibition at 10 µM. It counts as cell membranes, MDCK, Membrane.
Sodium-dependent noradrenaline transporter, sequence (P23975 whole entry): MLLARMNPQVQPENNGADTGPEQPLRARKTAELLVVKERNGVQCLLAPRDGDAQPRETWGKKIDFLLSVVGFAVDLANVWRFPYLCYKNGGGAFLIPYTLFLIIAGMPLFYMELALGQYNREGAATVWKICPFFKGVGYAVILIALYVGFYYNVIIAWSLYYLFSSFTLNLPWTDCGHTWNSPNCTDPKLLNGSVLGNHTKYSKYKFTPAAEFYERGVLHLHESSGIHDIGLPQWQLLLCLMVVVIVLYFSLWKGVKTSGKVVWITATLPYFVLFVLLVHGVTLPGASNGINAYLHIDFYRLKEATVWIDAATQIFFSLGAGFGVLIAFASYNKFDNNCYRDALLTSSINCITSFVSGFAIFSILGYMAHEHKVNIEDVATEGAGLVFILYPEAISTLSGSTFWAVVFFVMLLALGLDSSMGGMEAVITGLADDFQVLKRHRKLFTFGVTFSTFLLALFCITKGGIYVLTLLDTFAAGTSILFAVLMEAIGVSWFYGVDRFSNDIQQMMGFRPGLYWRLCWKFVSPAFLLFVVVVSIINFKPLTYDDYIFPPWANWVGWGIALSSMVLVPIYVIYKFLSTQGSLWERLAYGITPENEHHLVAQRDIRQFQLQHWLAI
For `CNS(=O)(=O)Cc1ccc2[nH]cc(CCN(C)C)c2c1`, the IC50 entry was “Not Active”.

For `COc1ccc(/C=C/C(=O)Nc2ccccc2C(=O)O)cc1OC`, the IC50 entry is “Not Active”.

With `CC(=O)Nc1nnc(S(N)(=O)=O)s1` [ACETAZOLAMIDE], the IC50 result is on record as “Not Active”.

`CC1=C(CC(=O)O)c2cc(F)ccc2/C1=C\c1ccc(S(C)(=O)=O)cc1` [EXISULIND]: the IC50 entry is reported as “Not Active”.

For `CN1C2CCCC1CC(NC(=O)c1nn(C)c3ccccc13)C2` (stereo unspecified) [GRANISETRON], the IC50 entry is listed as “Not Active”.

Take `Nc1nc2c(c(=O)[nH]1)N(C=O)C(CNc1ccc(C(=O)N[C@@H](CCC(=O)O)C(=O)O)cc1)CN2` (stereo partly specified) [LEUCOVORIN]: the IC50 entry is reported as “Not Active”.

In the case of `C[C@@H](O)[C@H]1C(=O)N2C(C(=O)O)=C(S[C@@H]3CN[C@H](C(=O)N(C)C)C3)[C@H](C)[C@H]12` [MEROPENEM], the IC50 result was “Not Active”.

Turning to `CC[C@@H](CO)NC(=O)[C@@H]1C=C2c3cccc4c3c(cn4C)C[C@H]2N(C)C1` [METHYSERGIDE], the IC50 result is listed as “Not Active”.

Tested on in another series: not listed separately
Nature of the series: DRUGMATRIX: Tumor Necrosis Factor (TNF), Non-Selective radioligand binding (ligand: [125I] TNF-alpha). It counts as cell membranes, Membrane. To be noted: u-937; Not Active = under 50% inhibition at 10 µM.
Take `CNS(=O)(=O)Cc1ccc2[nH]cc(CCN(C)C)c2c1`: the IC50 result is “Not Active” and the Ki entry was “Not Active”.

As to `COc1ccc(/C=C/C(=O)Nc2ccccc2C(=O)O)cc1OC`, the IC50 result was “Not Active” and the Ki entry is reported as “Not Active”.

Consider `CC1=C(CC(=O)O)c2cc(F)ccc2/C1=C\c1ccc(S(C)(=O)=O)cc1` [EXISULIND], for which the IC50 result is reported as “Not Active” and the Ki entry is “Not Active”.

Consider `Nc1nc2c(c(=O)[nH]1)N(C=O)C(CNc1ccc(C(=O)N[C@@H](CCC(=O)O)C(=O)O)cc1)CN2` (stereo partly specified) [LEUCOVORIN], for which the IC50 entry is recorded as “Not Active” and the Ki result is “Not Active”.

Regarding `C[C@@H](O)[C@H]1C(=O)N2C(C(=O)O)=C(S[C@@H]3CN[C@H](C(=O)N(C)C)C3)[C@H](C)[C@H]12` [MEROPENEM], the IC50 entry is on record as “Not Active” and the Ki entry was “Not Active”.

In the next series the target is Estrogen receptor beta (Homo sapiens, UniProt Q92731). To be noted: sf9. Note: in other assays of this panel Not Active means under 50% inhibition at 10 µM.
Estrogen receptor beta, sequence (Q92731 whole entry): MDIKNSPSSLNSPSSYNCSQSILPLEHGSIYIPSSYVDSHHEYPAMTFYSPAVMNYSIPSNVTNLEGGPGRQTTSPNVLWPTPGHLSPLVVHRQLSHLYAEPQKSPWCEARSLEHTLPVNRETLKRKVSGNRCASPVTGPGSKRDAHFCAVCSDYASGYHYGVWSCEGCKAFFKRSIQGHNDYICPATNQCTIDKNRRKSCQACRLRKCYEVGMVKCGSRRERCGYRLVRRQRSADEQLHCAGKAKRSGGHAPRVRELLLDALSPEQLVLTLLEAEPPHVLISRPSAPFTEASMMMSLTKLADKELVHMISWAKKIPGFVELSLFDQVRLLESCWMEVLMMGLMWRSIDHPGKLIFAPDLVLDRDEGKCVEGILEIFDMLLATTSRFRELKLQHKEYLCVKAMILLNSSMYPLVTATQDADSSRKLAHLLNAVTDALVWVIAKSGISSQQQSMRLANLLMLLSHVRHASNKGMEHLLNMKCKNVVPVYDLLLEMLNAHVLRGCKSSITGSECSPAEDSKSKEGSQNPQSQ
In the case of `CNS(=O)(=O)Cc1ccc2[nH]cc(CCN(C)C)c2c1`, the IC50 entry was “Not Active”.

Consider `COc1ccc(/C=C/C(=O)Nc2ccccc2C(=O)O)cc1OC`, for which the IC50 result was “Not Active”.

In the case of `CC(=O)Nc1nnc(S(N)(=O)=O)s1` [ACETAZOLAMIDE], the IC50 entry is reported as “Not Active”.

Turning to `CC1=C(CC(=O)O)c2cc(F)ccc2/C1=C\c1ccc(S(C)(=O)=O)cc1` [EXISULIND], the IC50 result is reported as “Not Active”.

On to `CN1C2CCCC1CC(NC(=O)c1nn(C)c3ccccc13)C2` (stereo unspecified) [GRANISETRON], for which the IC50 result is “Not Active”.

On to `Nc1nc2c(c(=O)[nH]1)N(C=O)C(CNc1ccc(C(=O)N[C@@H](CCC(=O)O)C(=O)O)cc1)CN2` (stereo partly specified) [LEUCOVORIN], for which the IC50 entry is reported as “Not Active”.

In the case of `C[C@@H](O)[C@H]1C(=O)N2C(C(=O)O)=C(S[C@@H]3CN[C@H](C(=O)N(C)C)C3)[C@H](C)[C@H]12` [MEROPENEM], the IC50 result is “Not Active”.

For `CC[C@@H](CO)NC(=O)[C@@H]1C=C2c3cccc4c3c(cn4C)C[C@H]2N(C)C1` [METHYSERGIDE], the IC50 result was “Not Active”.

For a further series, the target named is T1, Muscarinic acetylcholine receptor M2 (Homo sapiens, UniProt P08172). Note: in other assays of this panel Not Active means under 50% inhibition at 10 µM.
T1 sequence (P08172 whole entry): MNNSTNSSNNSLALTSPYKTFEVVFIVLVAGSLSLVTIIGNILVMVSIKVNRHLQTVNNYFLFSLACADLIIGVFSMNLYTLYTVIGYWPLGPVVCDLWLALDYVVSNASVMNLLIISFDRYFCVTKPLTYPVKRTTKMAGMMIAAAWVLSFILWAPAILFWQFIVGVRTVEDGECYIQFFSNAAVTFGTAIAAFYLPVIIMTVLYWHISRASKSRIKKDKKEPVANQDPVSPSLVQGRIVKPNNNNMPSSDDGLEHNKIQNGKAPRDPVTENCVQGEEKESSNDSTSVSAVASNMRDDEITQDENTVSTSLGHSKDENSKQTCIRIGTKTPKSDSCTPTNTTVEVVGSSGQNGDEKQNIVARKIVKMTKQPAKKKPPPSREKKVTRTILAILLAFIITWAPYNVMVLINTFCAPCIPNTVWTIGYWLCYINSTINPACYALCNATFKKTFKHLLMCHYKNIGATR
In kind it is cell membranes, CHO-K1, Membrane. To be noted: cho-k1.
Regarding `CNS(=O)(=O)Cc1ccc2[nH]cc(CCN(C)C)c2c1`, the IC50 result is “Not Active”.

On to `COc1ccc(/C=C/C(=O)Nc2ccccc2C(=O)O)cc1OC`, for which the IC50 entry was “Not Active”.

Consider `CC(=O)Nc1nnc(S(N)(=O)=O)s1` [ACETAZOLAMIDE], for which the IC50 entry was “Not Active”.

On to `CC1=C(CC(=O)O)c2cc(F)ccc2/C1=C\c1ccc(S(C)(=O)=O)cc1` [EXISULIND], for which the IC50 entry is “Not Active”.

`CN1C2CCCC1CC(NC(=O)c1nn(C)c3ccccc13)C2` (stereo unspecified) [GRANISETRON]: the IC50 result is “Not Active”.

As for `Nc1nc2c(c(=O)[nH]1)N(C=O)C(CNc1ccc(C(=O)N[C@@H](CCC(=O)O)C(=O)O)cc1)CN2` (stereo partly specified) [LEUCOVORIN], the IC50 entry is given as “Not Active”.

In the case of `C[C@@H](O)[C@H]1C(=O)N2C(C(=O)O)=C(S[C@@H]3CN[C@H](C(=O)N(C)C)C3)[C@H](C)[C@H]12` [MEROPENEM], the IC50 entry is “Not Active”.

In the case of `CC[C@@H](CO)NC(=O)[C@@H]1C=C2c3cccc4c3c(cn4C)C[C@H]2N(C)C1` [METHYSERGIDE], the IC50 entry is recorded as “Not Active”.

The next series deals with T2, Interstitial collagenase (Homo sapiens, UniProt P03956).
T2 sequence (P03956 whole entry): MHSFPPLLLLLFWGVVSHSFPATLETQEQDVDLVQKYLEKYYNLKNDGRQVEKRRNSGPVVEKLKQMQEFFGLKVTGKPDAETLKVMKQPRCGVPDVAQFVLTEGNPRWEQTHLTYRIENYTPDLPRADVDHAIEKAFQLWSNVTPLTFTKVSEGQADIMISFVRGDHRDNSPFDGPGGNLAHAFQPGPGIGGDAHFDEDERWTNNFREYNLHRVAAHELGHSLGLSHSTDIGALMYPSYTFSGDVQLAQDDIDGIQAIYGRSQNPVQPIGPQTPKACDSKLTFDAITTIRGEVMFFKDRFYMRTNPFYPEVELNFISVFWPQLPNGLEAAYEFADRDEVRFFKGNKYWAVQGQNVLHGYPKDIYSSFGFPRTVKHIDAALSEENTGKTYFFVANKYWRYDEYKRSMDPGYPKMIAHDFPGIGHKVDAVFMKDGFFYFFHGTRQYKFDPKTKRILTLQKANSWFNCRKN
It counts as tissue-based, Rheumatoid synovial fibroblasts.
Conditions: not given
Take `CNS(=O)(=O)Cc1ccc2[nH]cc(CCN(C)C)c2c1`: the IC50 result was “Not Active”.

On to `COc1ccc(/C=C/C(=O)Nc2ccccc2C(=O)O)cc1OC`, for which the IC50 result was “Not Active”.

For `CC(=O)Nc1nnc(S(N)(=O)=O)s1` [ACETAZOLAMIDE], the IC50 result is “Not Active”.

Turning to `CC1=C(CC(=O)O)c2cc(F)ccc2/C1=C\c1ccc(S(C)(=O)=O)cc1` [EXISULIND], the IC50 result is “Not Active”.

With `CN1C2CCCC1CC(NC(=O)c1nn(C)c3ccccc13)C2` (stereo unspecified) [GRANISETRON], the IC50 entry is “Not Active”.

As to `Nc1nc2c(c(=O)[nH]1)N(C=O)C(CNc1ccc(C(=O)N[C@@H](CCC(=O)O)C(=O)O)cc1)CN2` (stereo partly specified) [LEUCOVORIN], the IC50 entry is “Not Active”.

As for `C[C@@H](O)[C@H]1C(=O)N2C(C(=O)O)=C(S[C@@H]3CN[C@H](C(=O)N(C)C)C3)[C@H](C)[C@H]12` [MEROPENEM], the IC50 entry is “Not Active”.

Regarding `CC[C@@H](CO)NC(=O)[C@@H]1C=C2c3cccc4c3c(cn4C)C[C@H]2N(C)C1` [METHYSERGIDE], the IC50 entry is recorded as “Not Active”.

The target in the next series is Cytochrome P450 2C9 (Homo sapiens, UniProt P11712). To be noted: bti-tn-5b1-4. Note: in other assays of this panel Not Active means under 50% inhibition at 10 µM.
Cytochrome P450 2C9, sequence (P11712 whole entry): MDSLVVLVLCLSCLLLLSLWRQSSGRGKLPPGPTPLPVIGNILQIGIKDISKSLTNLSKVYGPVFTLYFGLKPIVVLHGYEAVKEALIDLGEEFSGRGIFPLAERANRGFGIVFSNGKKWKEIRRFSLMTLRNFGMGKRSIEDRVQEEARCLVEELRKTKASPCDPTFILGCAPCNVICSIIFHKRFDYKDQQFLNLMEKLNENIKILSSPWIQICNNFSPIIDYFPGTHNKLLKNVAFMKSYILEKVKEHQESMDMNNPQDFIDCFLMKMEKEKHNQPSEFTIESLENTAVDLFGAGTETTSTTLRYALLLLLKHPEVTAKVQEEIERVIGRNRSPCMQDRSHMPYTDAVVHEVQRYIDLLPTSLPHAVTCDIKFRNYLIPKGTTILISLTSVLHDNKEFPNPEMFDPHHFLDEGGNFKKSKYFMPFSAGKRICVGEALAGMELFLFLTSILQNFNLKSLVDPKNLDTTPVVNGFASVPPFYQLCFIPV
For the compound `CNS(=O)(=O)Cc1ccc2[nH]cc(CCN(C)C)c2c1`, the IC50 entry is reported as “Not Active” and the Ki entry is recorded as “Not Active”.

`COc1ccc(/C=C/C(=O)Nc2ccccc2C(=O)O)cc1OC`: the IC50 result was “Not Active” and the Ki entry was “Not Active”.

Consider `CC(=O)Nc1nnc(S(N)(=O)=O)s1` [ACETAZOLAMIDE], for which the IC50 entry is reported as “Not Active” and the Ki entry is recorded as “Not Active”.

With `CC1=C(CC(=O)O)c2cc(F)ccc2/C1=C\c1ccc(S(C)(=O)=O)cc1` [EXISULIND], the IC50 result is listed as “Not Active” and the Ki entry is given as “Not Active”.

As to `CN1C2CCCC1CC(NC(=O)c1nn(C)c3ccccc13)C2` (stereo unspecified) [GRANISETRON], the IC50 entry was “Not Active” and the Ki result is recorded as “Not Active”.

Turning to `Nc1nc2c(c(=O)[nH]1)N(C=O)C(CNc1ccc(C(=O)N[C@@H](CCC(=O)O)C(=O)O)cc1)CN2` (stereo partly specified) [LEUCOVORIN], the IC50 result is listed as “Not Active” and the Ki result was “Not Active”.

With `C[C@@H](O)[C@H]1C(=O)N2C(C(=O)O)=C(S[C@@H]3CN[C@H](C(=O)N(C)C)C3)[C@H](C)[C@H]12` [MEROPENEM], the IC50 result is listed as “Not Active” and the Ki result is recorded as “Not Active”.

Turning to `CC[C@@H](CO)NC(=O)[C@@H]1C=C2c3cccc4c3c(cn4C)C[C@H]2N(C)C1` [METHYSERGIDE], the IC50 result is “Not Active” and the Ki result was “Not Active”.

A further series deals with T3, B2 bradykinin receptor (Homo sapiens, UniProt P30411).
T3 sequence (P30411 whole entry): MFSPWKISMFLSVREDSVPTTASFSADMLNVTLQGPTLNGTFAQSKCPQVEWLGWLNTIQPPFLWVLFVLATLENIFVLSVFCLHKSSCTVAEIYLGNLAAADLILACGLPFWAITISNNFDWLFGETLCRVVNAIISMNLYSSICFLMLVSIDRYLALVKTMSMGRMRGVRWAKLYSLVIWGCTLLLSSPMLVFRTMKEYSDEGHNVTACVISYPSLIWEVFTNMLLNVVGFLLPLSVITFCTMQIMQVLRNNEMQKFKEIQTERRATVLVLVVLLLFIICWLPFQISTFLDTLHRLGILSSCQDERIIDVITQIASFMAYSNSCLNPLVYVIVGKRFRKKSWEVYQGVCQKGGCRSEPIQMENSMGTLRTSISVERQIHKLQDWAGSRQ
In kind it is cell membranes, Membrane. To be noted: chem-1.
Turning to `CNS(=O)(=O)Cc1ccc2[nH]cc(CCN(C)C)c2c1`, the IC50 entry is on record as “Not Active”.

With `COc1ccc(/C=C/C(=O)Nc2ccccc2C(=O)O)cc1OC`, the IC50 entry was “Not Active”.

On to `CC(=O)Nc1nnc(S(N)(=O)=O)s1` [ACETAZOLAMIDE], for which the IC50 result was “Not Active”.

On to `CC1=C(CC(=O)O)c2cc(F)ccc2/C1=C\c1ccc(S(C)(=O)=O)cc1` [EXISULIND], for which the IC50 entry is on record as “Not Active”.

For `CN1C2CCCC1CC(NC(=O)c1nn(C)c3ccccc13)C2` (stereo unspecified) [GRANISETRON], the IC50 entry is on record as “Not Active”.

On to `Nc1nc2c(c(=O)[nH]1)N(C=O)C(CNc1ccc(C(=O)N[C@@H](CCC(=O)O)C(=O)O)cc1)CN2` (stereo partly specified) [LEUCOVORIN], for which the IC50 entry was “Not Active”.

With `C[C@@H](O)[C@H]1C(=O)N2C(C(=O)O)=C(S[C@@H]3CN[C@H](C(=O)N(C)C)C3)[C@H](C)[C@H]12` [MEROPENEM], the IC50 entry is reported as “Not Active”.

On to `CC[C@@H](CO)NC(=O)[C@@H]1C=C2c3cccc4c3c(cn4C)C[C@H]2N(C)C1` [METHYSERGIDE], for which the IC50 result is “Not Active”.
